# “And” between values parts separate entries of the source, which are not always exact repeats. Identical values can stand only once.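 Method: 48-hour compound exposure of cells in 96-well plates, five concentrations, linear interpolation of endpoints. The concentration for 50% growth inhibition is given as GI50. At the TGI there is no net growth.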
# Legend:
# Assay in all cases: NCI anticancer screen, dose series, 48 h
# [1] = test system: NCI-H522 lung
# [2] = test system: HT29 colon
# [3] = test system: SN12C renal
# [4] = test system: MDA-MB-435
# [5] = test system: OVCAR-4 ovarian
# [6] = test system: K-562 leukemia
# [7] = test system: EKVX NSCLC
# [8] = test system: RPMI-8226 leukemia
# [9] = test system: LOX IMVI melanoma
# [10] = test system: MOLT-4 leukemia
SMILES,GI50 [1],TGI [1],GI50 [2],TGI [2],GI50 [3],TGI [3],GI50 [4],TGI [4],GI50 [5],TGI [5],GI50 [6],TGI [6],GI50 [7],TGI [7],GI50 [8],TGI [8],GI50 [9],TGI [9],GI50 [10],TGI [10]
Cc1c(NC(=O)OC[C@@H]2COCCN2)cn2ncnc(Nc3ccc4c(cnn4Cc4cccc(F)c4)c3)c12,> 10 µM and 2.16 µM,> 10 µM and 17.4 µM,6.38 µM and 4.65 µM,> 10 µM and 16.9 µM,> 10 µM and 3.32 µM,> 10 µM and 20.4 µM,> 10 µM and 9.97 µM,> 10 µM and 23 µM,> 10 µM and 8.04 µM,> 10 µM and 27.3 µM,3.91 µM and 4.53 µM,> 10 µM and 17.1 µM,0.716 µM and 0.257 µM,> 10 µM and 14.2 µM,5.35 µM and 6.35 µM,> 10 µM and 28.2 µM,5.8 µM and 5.39 µM,> 10 µM and 19.4 µM,7.63 µM and 7.76 µM,> 10 µM and 24.1 µM
C=C1C(=O)O[C@H]2[C@H]1CC/C(COC(=O)c1ccc(C#N)cc1)=C\CC[C@@]1(C)O[C@@H]21,1.55 µM,3.35 µM,1.62 µM,4.02 µM,2.22 µM,5.75 µM,1.96 µM,4.53 µM,2.88 µM,9.39 µM,1.94 µM,13 µM,2.26 µM,6.85 µM,1.5 µM,4.61 µM,1.56 µM,2.99 µM,2.37 µM,6.52 µM
COc1ccccc1S(=O)(=O)Nc1ccc2c(c1)CN(C)C(=O)N2,2.34 µM and 4.75 µM,> 91.7 µM,2.55 µM and 2.26 µM,> 100 µM,11 µM and 7.5 µM,> 100 µM,4.24 µM and 2.63 µM,> 100 µM,3.4 µM and 4.28 µM,> 100 µM,8.64 µM and 5.18 µM,> 100 µM,20.3 µM,> 100 µM,2.16 µM and 1.89 µM,> 100 µM,3.3 µM and 3.45 µM,27.8 µM and 21.3 µM,11 µM and 12.7 µM,> 100 µM
CN(C[C@@H]1COCCO1)S(=O)(=O)Nc1ccc2ccc3ncc(-c4cnn(C)c4)cc3c(=O)c2c1,3.71 µM,> 31 µM,19.7 µM,> 100 µM,3.53 µM,> 100 µM,7.13 µM,> 100 µM,5.65 µM,> 100 µM,6.57 µM,> 100 µM,19.1 µM,> 100 µM,3.88 µM,> 100 µM,3.37 µM,> 100 µM,4.08 µM,> 91.3 µM
C=C(C)[C@@H]1CC[C@]2(COC3CCCCO3)CC[C@]3(C)[C@H](CC[C@@H]4[C@@]5(C)C=C(C=O)C(=O)C(C)(C)[C@@H]5CC[C@]43C)[C@@H]12 (stereo not given in full),1.38 µM,2.86 µM,1.7 µM,3.49 µM,2.06 µM,5.57 µM,1.05 µM,2.32 µM,2.01 µM,3.89 µM,1.64 µM,5.98 µM,1.62 µM,3.32 µM,1.59 µM,8.3 µM,1.36 µM,2.73 µM,1.03 µM,29.9 µM
Cn1c(=S)c2[nH]c(SCCN3CCCC3)nc2n(C)c1=O,,> 100 µM,,> 100 µM,,> 100 µM,,> 100 µM,,> 100 µM,,> 100 µM,,> 100 µM,,> 100 µM,,> 100 µM,,> 100 µM
N#Cc1ccc(C(c2ccc(C#N)cc2)n2cncn2)cc1,,> 5000 µM,> 5000 µM,> 5000 µM,> 5000 µM,> 5000 µM,> 5000 µM,> 5000 µM,> 5000 µM,> 5000 µM,3800 µM,> 5000 µM,> 5000 µM,> 5000 µM,> 5000 µM,> 5000 µM,> 5000 µM,> 5000 µM,> 5000 µM,> 5000 µM
CCN1C(=O)N(c2ccccc2)C2NN=c3s/c(=C4\C(=O)N(C(C)C)c5ccccc54)c(=O)n3C21 (stereo not given),1.1 µM,> 77.9 µM,1.08 µM,> 100 µM,1.86 µM,> 100 µM,0.283 µM,0.991 µM,3.71 µM,> 100 µM,0.518 µM,> 100 µM,1.83 µM,> 100 µM,2.92 µM,18 µM,2.17 µM,11.2 µM,1.58 µM,> 100 µM
Cc1ccc(S(=O)(=O)Cc2nc(-c3ccc(C(=O)NCc4cccnc4)cc3)oc2C)cc1,1.33 µM,27.7 µM,0.0784 µM,> 100 µM,< 0.01 µM,> 100 µM,0.054 µM,12 µM,2.64 µM,> 100 µM,< 0.01 µM,> 100 µM,> 100 µM,> 100 µM,0.0673 µM,> 100 µM,8.12 µM,> 100 µM,0.595 µM,> 100 µM
COc1ccc(Cn2cc3c(c2-c2cc(OC)c(OC)c(OC)c2)CCc2cnoc2-3)cc1[N+](=O)[O-],0.294 µM,1.64 µM,0.411 µM,2.28 µM,4.11 µM,> 100 µM,0.219 µM,0.612 µM,3.75 µM,> 100 µM,0.358 µM,> 100 µM,1.43 µM,> 100 µM,1.39 µM,> 29.9 µM,0.898 µM,> 100 µM,1.4 µM,> 100 µM
CNC1C(O)C(OC2C(N)CC(N)C(OC3OC(C(C)O)C(O)C(O)C3N)C2O)OCC1(C)O (stereo not given),,> 100 µM,,> 100 µM,,> 100 µM,,> 100 µM,,> 100 µM,,> 100 µM,,> 100 µM,,> 100 µM,,> 100 µM,,> 100 µM
COc1ccc(C(=O)/C=C/c2ccc(OCC(=O)N3CCN(c4ccccc4)CC3)cc2)cc1,,> 45.8 µM,,> 100 µM,,> 100 µM,,> 100 µM,,> 100 µM,,> 100 µM,,> 90.4 µM,,> 77.8 µM,,> 100 µM,,> 100 µM
O=C(NCCCCCCCCNC(=O)c1cccc2ccccc12)c1cccc2ccccc12,,> 46.4 µM,,> 100 µM,,> 100 µM,,> 100 µM,,19 µM,,> 100 µM,,> 91.7 µM,,> 100 µM,,> 100 µM,,> 100 µM
C#Cc1cccc(Nc2nc3ccc([N+](=O)[O-])cc3nc2Nc2cccc(C#C)c2)c1,0.209 µM,0.609 µM,0.229 µM,0.562 µM,0.313 µM,1.29 µM,0.265 µM,0.838 µM,0.218 µM,0.982 µM,0.216 µM,0.7 µM,0.249 µM,0.987 µM,0.218 µM,0.998 µM,0.172 µM,0.328 µM,0.247 µM,1.02 µM
CS(=O)(=O)CCNCc1ccc(-c2ccc3ncnc(Nc4ccc(OCc5ccccc5)c(Cl)c4)c3c2)o1,2.2 µM,6.79 µM,3.53 µM,7.98 µM,11.9 µM,> 25 µM,4.47 µM,9.78 µM,9.59 µM,> 25 µM,5.45 µM,14.4 µM,0.132 µM,> 18.7 µM,5.49 µM,13.7 µM,4.11 µM,8.2 µM,6.05 µM,> 25 µM
COc1ccc(-c2csc(-c3cc(Cl)cc(Cl)c3Cl)n2)cc1,> 100 µM,> 100 µM,47.5 µM,> 100 µM,> 100 µM,> 100 µM,21.8 µM,> 100 µM,53.8 µM,> 100 µM,46 µM,> 100 µM,59.9 µM,> 100 µM,67 µM,> 100 µM,> 100 µM,> 100 µM,57 µM,> 100 µM
COc1ccc(-c2c(-c3cc(OC)c4c(c3)OCO4)noc2N)cc1,,0.0239 µM,0.0353 µM,1.63 µM,0.147 µM,> 93 µM,,0.0251 µM,0.204 µM,> 56.4 µM,0.0193 µM,> 100 µM,1.74 µM,> 71.3 µM,0.0511 µM,16.9 µM,0.0629 µM,> 51.5 µM,0.0723 µM,17.5 µM
C[C@H]1C(Oc2ccc(O)cc2)OC2OC3(C)CCC4[C@H](C)CCC1C24OO3 (stereo not given in full),11 µM,25.3 µM,8.86 µM,27.4 µM,11.7 µM,26 µM,12.4 µM,46.3 µM,4.7 µM,31 µM,> 42 µM,> 100 µM,6.42 µM,23.1 µM,,> 63.1 µM,11.5 µM,30.6 µM,,> 63.6 µM
O=C(OCc1ccc2c(Cl)cc(Cl)c(O)c2n1)c1cc2ccccc2[nH]1,0.361 µM,1.15 µM,0.32 µM,1.03 µM,0.285 µM,0.939 µM,0.318 µM,1.04 µM,0.596 µM,1.45 µM,0.336 µM,10.2 µM,1.49 µM,3 µM,0.279 µM,0.828 µM,0.17 µM,0.332 µM,0.407 µM,2.35 µM
Cc1nc2n(c(=O)c1CCN1CCC(c3noc4cc(F)ccc34)CC1)CCCC2,> 50 µM,> 50 µM,> 50 µM,> 50 µM,> 50 µM,> 50 µM,> 50 µM,> 50 µM,> 50 µM,> 50 µM,> 50 µM,> 50 µM,> 50 µM,> 50 µM,> 50 µM,> 50 µM,> 50 µM,> 50 µM,> 50 µM,> 50 µM
CCCCCCCC(=O)SCC/C=C/[C@@H]1CC(=O)NCc2nc(co2)C2=N[C@@](C)(CS2)C(=O)N[C@@H](C(C)C)C(=O)O1,0.00808 µM,0.121 µM,0.0136 µM,7.78 µM,0.0508 µM,> 50 µM,0.0148 µM,1.63 µM,0.0276 µM,> 50 µM,0.0398 µM,> 50 µM,0.0344 µM,> 50 µM,0.09 µM,> 50 µM,0.0277 µM,0.103 µM,0.0241 µM,25.7 µM
NC(=O)/C=C/NC(=O)/C=N\O,,> 100 µM,,> 100 µM,,> 100 µM,,> 100 µM,,> 100 µM,,> 100 µM,,> 100 µM,,> 100 µM,,> 100 µM,,> 100 µM

# Reference: PubChem BioAssay (NCI)
